# Test results published in US20250026752A1, “POSITIVE ALLOSTERIC MODULATORS OF THE MUSCARINIC ACETYLCHOLINE RECEPTOR M4” (Vanderbilt University, priority 2021, published 2025).
# pEC50: −log10 of the molar value.
# Target: T1, human mAChR M4 (Homo sapiens, UniProt P08173)
# T1 construct: expressed in transfected cells; host or cells: CHO-K1 (ATCC), stably expressing hM4 and Gqi5
# T1 sequence (P08173 1-479): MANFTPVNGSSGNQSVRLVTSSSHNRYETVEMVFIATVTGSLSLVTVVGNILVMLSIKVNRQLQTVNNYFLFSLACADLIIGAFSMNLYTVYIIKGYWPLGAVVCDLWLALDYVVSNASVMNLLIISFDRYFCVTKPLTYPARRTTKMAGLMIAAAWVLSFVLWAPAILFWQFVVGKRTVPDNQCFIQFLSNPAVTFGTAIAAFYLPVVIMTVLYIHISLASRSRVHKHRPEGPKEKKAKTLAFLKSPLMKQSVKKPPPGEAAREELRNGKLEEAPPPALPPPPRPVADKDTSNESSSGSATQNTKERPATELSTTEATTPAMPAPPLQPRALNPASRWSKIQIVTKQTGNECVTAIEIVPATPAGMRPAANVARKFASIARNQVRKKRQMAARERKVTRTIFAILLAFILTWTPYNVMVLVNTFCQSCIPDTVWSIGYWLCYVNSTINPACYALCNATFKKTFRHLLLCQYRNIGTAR
# Assay: mAChR M4 cell-based functional assay: calcium flux (Fluo-4, FDSS), positive allosteric modulator activity on the EC20 acetylcholine response, hM4-Gqi5 CHO-K1 cells
# Settings: for Emax at 30 µM: CHO-K1, human M4, % ACh maximum at 30 μM; for pEC50: human M4, PAM activity on EC20 acetylcholine response, calcium flux, read-out: Human M4 EC50
# In short: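 Potentiation was taken as the concentration-dependent rise in the EC20 acetylcholine calcium response, fitted by a four-parameter logistic with EC20 as baseline. Fluo-4-loaded hM4-Gqi5 CHO-K1 cells received 11-point, threefold-diluted compound before acetylcholine at 144 s; FDSS read at 1 Hz.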
SMILES,Emax at 30 µM [%],pEC50
"Clc1nc(N2CCc3ncc(N4CCCn5nccc54)cc3C2)c2cccnc2n1 [Compound 94, 2-chloro-4-[3-(6,7-dihydro-5H-pyrazolo[1,5-a]pyrimidin-4-yl)-7,8-dihydro-5H-1,6-naphthyridin-6-yl]pyrido[2,3-d]pyrimidine]",88,6.89
"Clc1nc(N2CCc3ncc(N4CCOc5ncccc54)cc3C2)c2cccnc2n1 [Compound 95, 1-[6-(2-chloropyrido[2,3-d]pyrimidin-4-yl)-7,8-dihydro-5H-1,6-naphthyridin-3-yl]-2,3-dihydropyrido[2,3-b][1,4]oxazine]",78,6.38
"Cc1ccc2nc(C)nc(N3CCc4ncc(N5CCOc6ncccc65)cc4C3)c2c1 [Compound 99, 1-[6-(2,6-dimethylquinazolin-4-yl)-7,8-dihydro-5H-1,6-naphthyridin-3-yl]-2,3-dihydropyrido[2,3-b][1,4]oxazine]",101,7.00
"Cc1ccc2nc(C)nc(N3CCc4ncc(N5CCCn6nccc65)cc4C3)c2c1 [Compound 100, 4-[3-(6,7-dihydro-5H-pyrazolo[1,5-a]pyrimidin-4-yl)-7,8-dihydro-5H-1,6-naphthyridin-6-yl]-2,6-dimethyl-quinazoline]",101,7.22
"C[C@@H]1CN(c2cnc3c(c2)CN(c2ncnc4ccc(F)cc24)CC3)CCO1 [Compound 104, (2R)-4-[6-(6-fluoroquinazolin-4-yl)-7,8-dihydro-5H-1,6-naphthyridin-3-yl]-2-methyl-morpholine]",63,7.15
"Cc1nc(N2CCc3ncc(N4CCOc5ncccc54)cc3C2)c2cc(Cl)ccc2n1 [Compound 107, 1-[6-(6-chloro-2-methyl-quinazolin-4-yl)-7,8-dihydro-5H-1,6-naphthyridin-3-yl]-2,3-dihydropyrido[2,3-b][1,4]oxazine]",98,6.85
"Cc1nc(N2CCc3ncc(Nc4ccnn4C)cc3C2)c2cc(Cl)ccc2n1 [Compound 108, 6-(6-chloro-2-methyl-quinazolin-4-yl)-N-(2-methylpyrazol-3-yl)-7,8-dihydro-5H-1,6-naphthyridin-3-amine]",102,6.77
"Fc1cc2c(N3CCc4ncc(Nc5cccnc5F)cc4C3)nc(Cl)nc2cc1Cl [Compound 110, 6-(2,7-dichloro-6-fluoro-quinazolin-4-yl)-N-(2-fluoro-3-pyridyl)-7,8-dihydro-5H-1,6-naphthyridin-3-amine]",76,5.41
"Fc1ccc2nc(C(F)(F)F)nc(N3CCc4ncc(N5CCCn6nccc65)cc4C3)c2c1 [Compound 111, 4-[3-(6,7-dihydro-5H-pyrazolo[1,5-a]pyrimidin-4-yl)-7,8-dihydro-5H-1,6-naphthyridin-6-yl]-6-fluoro-2-(trifluoromethyl)quinazoline]",82,6.40
"Fc1ccc2nc(C(F)(F)F)nc(N3CCc4ncc(N5CCOc6ncccc65)cc4C3)c2c1 [Compound 112, 1-[6-[6-fluoro-2-(trifluoromethyl)quinazolin-4-yl]-7,8-dihydro-5H-1,6-naphthyridin-3-yl]-2,3-dihydropyrido[2,3-b][1,4]oxazine]",92,6.42
"Fc1cccc(Cc2cnc3c(c2)CN(c2ncnc4ccc(F)cc24)CC3)c1 [Compound 114, 6-fluoro-4-[3-[(3-fluorophenyl)methyl]-7,8-dihydro-5H-1,6-naphthyridin-6-yl]quinazoline]",75,6.23
"Cc1nc(N2Cc3cc(C(F)(F)F)cnc3C(C)(C)C2)c2cc(F)ccc2n1 [Compound 118, 4-[8,8-dimethyl-3-(trifluoromethyl)-5,7-dihydro-1,6-naphthyridin-6-yl]-6-fluoro-2-methyl-quinazoline]",63,5.08

# Now from value to compound:
Emax at 30 µM [%],pEC50,SMILES
76,5.87,"COc1ccc2ncnc(N3CCc4ncc(N5CCC(C(F)(F)F)n6nccc65)cc4C3)c2c1 (stereo not shown) [Compound 90, 6-methoxy-4-[3-[7-(trifluoromethyl)-6,7-dihydro-5H-pyrazolo[1,5-a]pyrimidin-4-yl]-7,8-dihydro-5H-1,6-naphthyridin-6-yl]quinazoline]"
116,6.89,"Cc1ccc2ncnc(N3CCc4ncc(N5CCC(C(F)(F)F)n6nccc65)cc4C3)c2c1 (stereo not shown) [Compound 91, 6-methyl-4-[3-[7-(trifluoromethyl)-6,7-dihydro-5H-pyrazolo[1,5-a]pyrimidin-4-yl]-7,8-dihydro-5H-1,6-naphthyridin-6-yl]quinazoline]"
122,6.92,"Cc1ccc2ncnc(N3CCc4ncc(N5CCOc6ncccc65)cc4C3)c2c1 [Compound 92, 1-[6-(6-methylquinazolin-4-yl)-7,8-dihydro-5H-1,6-naphthyridin-3-yl]-2,3-dihydropyrido[2,3-b][1,4]oxazine]"
109,7.30,"Fc1cc2ncnc(N3CCc4ncc(N5CCCn6nccc65)cc4C3)c2cc1F [Compound 93, 4-[3-(6,7-dihydro-5H-pyrazolo[1,5-a]pyrimidin-4-yl)-7,8-dihydro-5H-1,6-naphthyridin-6-yl]-6,7-difluoro-quinazoline]"
94,7.10,"Cc1ccc2ncnc(N3CCc4ncc(Nc5ccnn5C)cc4C3)c2c1 [Compound 96, N-(2-methylpyrazol-3-yl)-6-(6-methylquinazolin-4-yl)-7,8-dihydro-5H-1,6-naphthyridin-3-amine]"
95,7.10,"Cc1ccc2ncnc(N3CCc4ncc(Nc5cccnc5F)cc4C3)c2c1 [Compound 97, N-(2-fluoro-3-pyridyl)-6-(6-methylquinazolin-4-yl)-7,8-dihydro-5H-1,6-naphthyridin-3-amine]"
97,7.52,"Fc1cc2ncnc(N3CCc4ncc(N5CCOc6ncccc65)cc4C3)c2cc1F [Compound 98, 1-[6-(6,7-difluoroquinazolin-4-yl)-7,8-dihydro-5H-1,6-naphthyridin-3-yl]-2,3-dihydropyrido[2,3-b][1,4]oxazine]"
92,6.32,"Cc1nc(N2CCc3ncc(N4CCCn5nccc54)cc3C2)c2cc(C(F)(F)F)ccc2n1 [Compound 101, 4-[3-(6,7-dihydro-5H-pyrazolo[1,5-a]pyrimidin-4-yl)-7,8-dihydro-5H-1,6-naphthyridin-6-yl]-2-methyl-6-(trifluoromethyl)quinazoline]"
78,6.68,"COc1cc2c(N3CCc4ncc(N5CCCn6nccc65)cc4C3)nc(Cl)nc2cc1F [Compound 102, 2-chloro-4-[3-(6,7-dihydro-5H-pyrazolo[1,5-a]pyrimidin-4-yl)-7,8-dihydro-5H-1,6-naphthyridin-6-yl]-7-fluoro-6-methoxy-quinazoline]"
63,7.30,"CC1(C)CN(c2cnc3c(c2)CN(c2ncnc4ccc(F)cc24)CC3)CCO1 [Compound 103, 4-[6-(6-fluoroquinazolin-4-yl)-7,8-dihydro-5H-1,6-naphthyridin-3-yl]-2,2-dimethyl-morpholine]"
91,7.15,"Clc1ccc2ncnc(N3CCc4ncc(N5CCOc6ncccc65)cc4C3)c2c1 [Compound 105, 1-[6-(6-chloroquinazolin-4-yl)-7,8-dihydro-5H-1,6-naphthyridin-3-yl]-2,3-dihydropyrido[2,3-b][1,4]oxazine]"
95,6.89,"Cn1nccc1Nc1cnc2c(c1)CN(c1ncnc3ccc(Cl)cc13)CC2 [Compound 106, 6-(6-chloroquinazolin-4-yl)-N-(2-methylpyrazol-3-yl)-7,8-dihydro-5H-1,6-naphthyridin-3-amine]"
80,6.34,"Fc1cc2c(N3CCc4ncc(N5CCCn6nccc65)cc4C3)nc(Cl)nc2cc1Cl [Compound 109, 2,7-dichloro-4-[3-(6,7-dihydro-5H-pyrazolo[1,5-a]pyrimidin-4-yl)-7,8-dihydro-5H-1,6-naphthyridin-6-yl]-6-fluoro-quinazoline]"
69,6.80,"Fc1ccc2ncnc(N3CCc4ncc(Oc5ccccc5F)cc4C3)c2c1 [Compound 113, 6-fluoro-4-[3-(2-fluorophenoxy)-7,8-dihydro-5H-1,6-naphthyridin-6-yl]quinazoline]"
95,6.96,"Cc1ccc2nc(Cl)nc(N3CCc4ncc(C(F)(F)F)cc4C3)c2c1 [Compound 119, 2-chloro-6-methyl-4-[3-(trifluoromethyl)-7,8-dihydro-5H-1,6-naphthyridin-6-yl]quinazoline]"
91,7.00,"Fc1ccc2nc(Cl)nc(N3CCc4ncc(C(F)(F)F)cc4C3)c2c1 [Compound 120, 2-chloro-6-fluoro-4-[3-(trifluoromethyl)-7,8-dihydro-5H-1,6-naphthyridin-6-yl]quinazoline]"
69,6.44,"FC(F)(F)c1cnc2c(c1)CN(c1nc(Cl)nc3ncccc13)CC2 [Compound 121, 2-chloro-4-[3-(trifluoromethyl)-7,8-dihydro-5H-1,6-naphthyridin-6-yl]pyrido[2,3-d]pyrimidine]"
